Reference: ChEMBL document CHEMBL5338712, “Influence of chain length on the anticancer activity of the antimicrobial peptide CAMEL with fatty acid modification” (Eur J Med Chem, 2022)
In brackets after ≈: the same amount, converted by molar mass. Activity calls are given as the source filed them. The rule behind the calls is not given here. Where a SMILES comes first, the peptide text is derived from it. The star is where a group is joined. Palmitoyl = CCCCCCCCCCCCCCCC(=O)*; Lauroyl = CCCCCCCCCCCC(=O)*; Octanoyl = CCCCCCCC(=O)*

Columns and labels:
B16-F10 [1] = experiment: Induction of apoptosis in mouse B16-F10 cells assessed as activation of caspase-3 incubated for 24 hrs by microplate reader analysis; assay type: functional, cell-based
B16-F10 [2] = experiment: Antiproliferative activity against mouse B16-F10 cells assessed as inhibition of cell viability by measuring ATP level at 10 uM measured for 4 to 24 hrs; assay type: functional, cell-based; details: time 4-24 hrs
B16-F10 [3] = experiment: Induction of necrotic cell death in mouse B16-F10 at 10 uM measured after 1 to 24 hrs; assay type: functional, cell-based; details: time 1-24 hrs
B16-F10 [4] = experiment: Cytotoxicity against mouse B16-F10 cells assessed as induction of cell death measured for 4 to 24 hrs by MTT assay; assay type: functional, cell-based; details: time 4-24 hrs
Staphylococcus aureus = experiment: Antibacterial activity against Staphylococcus aureus ATCC […] assessed as reduction in bacterial growth measured for 18 hrs by serial dilution method; assay type: functional
B16-F10 [5] = experiment: Induction of cell cycle arrest in mouse B16-F10 cells assessed as accumulation at G0/G1 phase at 10 uM and measured after 24 hrs PI staining based by flow cytometry; assay type: functional
B16-F10 [6] = experiment: Induction of morphological changes in mouse B16-F10 cells assessed as cell swelling at 20 uM incubated for 30 mins by microscopic analysis; assay type: functional, cell-based
B16-F10 [7] = experiment: Induction of ROS production in mouse B16-F10 cells at 10 uM measured for 0.5 to 4 hrs by DCFH-DA dye based microplate reader analysis; assay type: functional, cell-based; details: time 0.5-4 hrs
B16-F10 [8] = experiment: Induction of necroptosis in mouse B16-F10 cells assessed as cell death at 5 to 20 uM measured for 4 to 24 hrs in presence of Nec-1; assay type: functional, cell-based; details: dose 5-20 µM, time 4-24 hrs
B16-F10 [9] = experiment: Induction of morphological changes in mouse B16-F10 cells assessed as cell rounding at 20 uM incubated for 30 mins by microscopic analysis; assay type: functional, cell-based
[10] = Toxicity in C57BL/6 […] mouse implanted with mouse B16-F10 cells assessed as animal death administered intratumorally; assay type: cell-based; details: in vivo, other, route it(Intratumoral)
B16-F10 [11] = experiment: Cytotoxicity against mouse B16-F10 cells assessed as reduction in cell viability measured after 1 hrs by MTT assay; assay type: functional, cell-based; details: dose 1.25-20 µM
B16-F10 [12] = experiment: Cytotoxicity against mouse B16-F10 cells assessed as reduction in cell viability at 1.25 to 20 uM measured after 24 hrs by MTT assay; assay type: functional, cell-based; details: dose 1.25-20 µM
[13] = Self-assembly behavior of compound in saline solution assessed as critical micelle concentration by spectrophotometer analysis; assay type: physicochemical; details: buffer
B16-F10 [14] = experiment: Membrano-lytic activity in mouse B16-F10 cell membrane measured after 1 hr by LDH leakage assay; assay type: cell-based; details: dose 1.25-20 µM
B16-F10 [15] = experiment: Induction of apoptosis in mouse B16-F10 cells assessed as decrease in ATP level; assay type: functional, cell-based
B16-F10 [16] = experiment: Induction of cell membrane disruption in mouse B16-F10 cells at 20 uM measured for 30 mins by PI staining based microplate reader assay
trypsin = trypsin (Homo sapiens, UniProt P07477+P07478+P35030); experiment: Stability of compound assessed as trypsin (unknown origin)-mediated compound degradation measured upto 6 hrs by RP-HPLC analysis; assay type: ADME, protein assay; details: trypsin (enzyme solution), read-out: Drug degradation
B16-F10 [17] = experiment: Membrano-lytic activity in mouse B16-F10 cell membrane at 1.25 to 20 uM measured after 4 hr by LDH leakage assay; assay type: cell-based; details: dose 1.25-20 µM
B16-F10 [18] = experiment: Induction of mitochondrial membrane potential loss in mouse B16-F10 cells assessed as decrease in fluorescence intensity at 10 uM measured at 0.5 to 4 hrs by flow cytometry analysis; assay type: functional, cell-based; details: time 0.5-4 hrs
Escherichia coli = experiment: Antibacterial activity against Escherichia coli ATCC 25922 assessed as reduction in bacterial growth measured for 18 hrs by serial dilution method; assay type: functional
B16-F10 [19] = experiment: Induction of ROS production in mouse B16-F10 cells at 10 uM measured for 0.5 to 4 hrs by MitoSOX red dye based microplate reader analysis; assay type: functional, cell-based; details: time 0.5-4 hrs
B16-F10 [20] = experiment: Induction of necroptosis in mouse B16-F10 cells assessed as increase in ROS level; assay type: functional, cell-based
B16-F10 [21] = experiment: Membrano-lytic activity in mouse B16-F10 cell membrane at 20 uM measured at 1 hr by LDH leakage assay; assay type: cell-based
B16-F10 [22] = experiment: Antitumor activity against mouse B16-F10 cells implanted in intratumorally dosed C57BL/6 mouse assessed as reduction in tumor volume administered for 3 days by vernier caliper method; assay type: functional, organism-based; details: time 3.0 day
B16-F10 [23] = experiment: Induction of morphological changes in mouse B16-F10 cells assessed as cell bursting at 20 uM incubated for 30 mins by microscopic analysis; assay type: functional, cell-based
B16-F10 [24] = experiment: Induction of cell membrane disruption in mouse B16-F10 cells at 20 uM by PI staining based microplate reader assay; details: time 30.0 min, TDE = time-dependent effect
B16-F10 [25] = experiment: Induction of mitochondrial membrane potential loss in mouse B16-F10 cells at 10 uM by flow cytometry analysis; assay type: functional, cell-based; details: time 0.5-4 hrs, TDE = time-dependent effect
B16-F10 [26] = experiment: Membrano-lytic activity in mouse B16-F10 cell membrane at 1.25 to 20 uM measured after 1 hr by LDH leakage assay; assay type: cell-based; details: dose 1.25-20 µM
B16-F10 [27] = experiment: Membrano-lytic activity in mouse B16-F10 cell membrane at 20 uM by LDH leakage assay; assay type: cell-based; details: time 0.5-4 hrs, TDE = time-dependent effect
B16-F10 [28] = experiment: Cytotoxicity against mouse B16-F10 cells assessed as reduction in cell viability at 1.25 to 20 uM measured after 72 hrs by MTT assay; assay type: functional, cell-based; details: dose 1.25-20 µM
B16-F10 [29] = experiment: Cytotoxicity against mouse B16-F10 cells assessed as reduction in cell viability at 1.25 to 20 uM by MTT assay; assay type: functional, cell-based; details: dose 1.25-20 µM, time 1-72 hrs, TDE = time-dependent effect
B16-F10 [30] = experiment: Disruption of membrane integrity in mouse B16-F10 cells at 10 uM measured at 4 to 24 hrs by propidium iodide staining based laser scanning microscopic analysis; assay type: cell-based; details: time 4-24 hrs
B16-F10 [31] = experiment: Membrano-lytic activity in mouse B16-F10 cell membrane at 20 uM measured at 0.5 to 4 hrs by LDH leakage assay; assay type: cell-based; details: time 0.5-4 hrs
B16-F10 [32] = experiment: Membrano-lytic activity in mouse B16-F10 cell membrane at 20 uM measured after 0.5 hr by LDH leakage assay; assay type: cell-based
B16-F10 [33] = experiment: Induction of mitochondrial membrane potential loss in mouse B16-F10 cells assessed as decrease in fluorescence intensity at 10 uM measured at 4 hrs by flow cytometry analysis; assay type: functional, cell-based
B16-F10 [34] = experiment: Disruption of membrane integrity in mouse B16-F10 cells at 10 uM measured after 1 hr by propidium iodide staining based laser scanning microscopic analysis; assay type: cell-based

Row | Molecule | Activity (B16-F10 [1]) | Activity (B16-F10 [2]) | Activity (B16-F10 [3]) | Activity (B16-F10 [4]) | MIC (Staphylococcus aureus) | Activity (B16-F10 [5]) | Activity (B16-F10 [6]) | Activity (B16-F10 [7]) | Activity (B16-F10 [8]) | Activity (B16-F10 [9]) | Activity [10] | Activity (B16-F10 [11]) | Activity (B16-F10 [12]) | Activity (B16-F10 [14]) | Activity (B16-F10 [15]) | Activity (B16-F10 [16]) | metabolised at 6 h (trypsin) | Activity (B16-F10 [18]) | MIC (Escherichia coli) | Activity (B16-F10 [19]) | also measured
1 | CCCCCCCCCCCC(=O)N[C@@H](CCCCN)C(=O)N[C@@H](Cc1c[nH]c2ccccc12)C(=O)N[C@@H](CCCCN)C(=O)N[C@@H](CC(C)C)C(=O)N[C@@H](Cc1ccccc1)C(=O)N[C@@H](CCCCN)C(=O)N[C@@H](CCCCN)C(=O)N[C@H](C(=O)NCC(=O)N[C@@H](C)C(=O)N[C@H](C(=O)N[C@@H](CC(C)C)C(=O)N[C@@H](CCCCN)C(=O)N[C@H](C(=O)N[C@@H](CC(C)C)C(N)=O)C(C)C)C(C)C)[C@@H](C)CC (Lauroyl-KWKLFKKIGAVLKVL-NH2) | inactive | Active | Active | inactive | 8 µM (≈ 15.6 µg/mL) | inactive | Active | Active | Active | Active | Non-Toxic | Dose-Dependent Effect | Active | Dose-Dependent Effect | inactive | Active | 18.9% | Active | 8 µM (≈ 15.6 µg/mL) | Active | CMC [13]: 7.16 µM; Activity (B16-F10 [17]): Active; Activity (B16-F10 [20]): Active; Activity (B16-F10 [21]): Active; Activity (B16-F10 [22]): Active; Activity (B16-F10 [23]): Active; Activity (B16-F10 [24]): Tde; Activity (B16-F10 [25]): Tde
2 | CCCCCCCC(=O)N[C@@H](CCCCN)C(=O)N[C@@H](Cc1c[nH]c2ccccc12)C(=O)N[C@@H](CCCCN)C(=O)N[C@@H](CC(C)C)C(=O)N[C@@H](Cc1ccccc1)C(=O)N[C@@H](CCCCN)C(=O)N[C@@H](CCCCN)C(=O)N[C@H](C(=O)NCC(=O)N[C@@H](C)C(=O)N[C@H](C(=O)N[C@@H](CC(C)C)C(=O)N[C@@H](CCCCN)C(=O)N[C@H](C(=O)N[C@@H](CC(C)C)C(N)=O)C(C)C)C(C)C)[C@@H](C)CC (Octanoyl-KWKLFKKIGAVLKVL-NH2) |  |  |  |  | 4 µM (≈ 7.59 µg/mL) |  |  |  |  |  |  | Dose-Dependent Effect | Active | Dose-Dependent Effect |  |  | 70.2% |  | 8 µM (≈ 15.2 µg/mL) |  | Activity (B16-F10 [26]): Active
3 | CCCCCCCCCCCCCCCC(=O)N[C@@H](CCCCN)C(=O)N[C@@H](Cc1c[nH]c2ccccc12)C(=O)N[C@@H](CCCCN)C(=O)N[C@@H](CC(C)C)C(=O)N[C@@H](Cc1ccccc1)C(=O)N[C@@H](CCCCN)C(=O)N[C@@H](CCCCN)C(=O)N[C@H](C(=O)NCC(=O)N[C@@H](C)C(=O)N[C@H](C(=O)N[C@@H](CC(C)C)C(=O)N[C@@H](CCCCN)C(=O)N[C@H](C(=O)N[C@@H](CC(C)C)C(N)=O)C(C)C)C(C)C)[C@@H](C)CC (Palmitoyl-KWKLFKKIGAVLKVL-NH2) | inactive | Active | Active | inactive | > 128 µM | inactive | Active | Active | Active | Active | Non-Toxic | Dose-Dependent Effect | Active | Dose-Dependent Effect | inactive | Active | 8.7% | Active | > 128 µM | Active | Activity (B16-F10 [27]): Tde; CMC [13]: 4.95 µM; Activity (B16-F10 [28]): Active; Activity (B16-F10 [26]): Active; Activity (B16-F10 [20]): Active; Activity (B16-F10 [29]): Tde; Activity (B16-F10 [22]): Active; Activity (B16-F10 [23]): Active; Activity (B16-F10 [30]): Active; Activity (B16-F10 [25]): Tde
4 | H-KWKLFKKIGAVLKVL-NH2 | inactive | Active | Active | inactive | 4 µM | inactive | Active | Active | Active | Active | Non-Toxic | Dose-Dependent Effect | Active | Dose-Dependent Effect | inactive | Active | 100% | Active | 32 µM | Active | Activity (B16-F10 [31]): inactive; Activity (B16-F10 [32]): Active; Activity (B16-F10 [33]): inactive; Activity (B16-F10 [17]): Active; Activity (B16-F10 [34]): Active; Activity (B16-F10 [20]): Active; Activity (B16-F10 [22]): Active; Activity (B16-F10 [23]): Active; Activity (B16-F10 [24]): Tde
